# Assay: Dynamic vapor sorption (DVS): sorption and desorption of moisture
# Format: physicochemical
# Method: Investigations on the sorption and desorption of moisture (dynamic vapor sorption, DVS): DVS measurements were carried out on an apparatus of the type DVS 1000 from Porotec. The evaluation of the measurements was carried out using software from Surface Measurement Systems. At a temperature between 23° C. and 26° C., starting from a relative humidity of 50%, within 240 minutes the relative humidity first increased to 90% and then fell to 0%. This cycle was repeated a second time. The DVS charts shown are isothermal recordings (plots) of the change in the mass in % (change in mass—dry) as a function of the desired relative humidity in % (target RH). Correspondingly, the axes of the graphs are marked by ΔM [%] and RH [%]. The measurement curves of the first sorption are designated by 1-S, the subsequent first desorption by 1-D, the second sorption by 2-S and the second desorption by 2-D. Advantageously, mass changes between the sorption and desorption phase are as low as possible.
compound,measurement,setting,value
"CN(C)C[C@H]1CCCC[C@]1(O)c1cccc(O)c1 [free base, (+)-(1R,2R)-3-[2-(dimethylamino)methyl-1-hydroxycyclohexyl]phenol]",ΔM Desorption,"1st cycle, RH 0.0 %",0.00000%
same,ΔM Desorption,"1st cycle, RH 10.0 %",0.00395%
same,ΔM Desorption,"1st cycle, RH 20.0 %",0.00526%
same,ΔM Desorption,"1st cycle, RH 30.0 %",0.00526%
same,ΔM Desorption,"1st cycle, RH 40.0 %",0.00636%
same,ΔM Desorption,"1st cycle, RH 50.0 %",0.00614%
same,ΔM Hysteresis,"1st cycle, RH 50.0 %",−0.00241%
same,ΔM Sorption,"1st cycle, RH 50.0 %",0.00855%
same,ΔM Desorption,"1st cycle, RH 60.0 %",0.00526%
same,ΔM Hysteresis,"1st cycle, RH 60.0 %",−0.00219%
same,ΔM Sorption,"1st cycle, RH 60.0 %",0.00746%
same,ΔM Desorption,"1st cycle, RH 70.0 %",0.00395%
same,ΔM Hysteresis,"1st cycle, RH 70.0 %",0.00219%
same,ΔM Sorption,"1st cycle, RH 70.0 %",0.00175%
same,ΔM Desorption,"1st cycle, RH 80.0 %",0.00132%
same,ΔM Hysteresis,"1st cycle, RH 80.0 %",0.00592%
same,ΔM Sorption,"1st cycle, RH 80.0 %",−0.00461%
same,ΔM Desorption,"1st cycle, RH 90.0 %",−0.01097%
same,ΔM Sorption,"1st cycle, RH 90.0 %",−0.01097%
same,ΔM Desorption,"2nd cycle, RH 0.0 %",−0.00461%
same,ΔM Sorption,"2nd cycle, RH 0.0 %",0.00000%
same,ΔM Desorption,"2nd cycle, RH 10.0 %",−0.00132%
same,ΔM Hysteresis,"2nd cycle, RH 10.0 %",−0.00329%
same,ΔM Sorption,"2nd cycle, RH 10.0 %",0.00197%
same,ΔM Desorption,"2nd cycle, RH 20.0 %",0.00044%
same,ΔM Hysteresis,"2nd cycle, RH 20.0 %",−0.00351%
same,ΔM Sorption,"2nd cycle, RH 20.0 %",0.00395%
same,ΔM Desorption,"2nd cycle, RH 30.0 %",0.00132%
same,ΔM Hysteresis,"2nd cycle, RH 30.0 %",−0.00395%
same,ΔM Sorption,"2nd cycle, RH 30.0 %",0.00526%
same,ΔM Desorption,"2nd cycle, RH 40.0 %",0.00307%
same,ΔM Hysteresis,"2nd cycle, RH 40.0 %",−0.00395%
same,ΔM Sorption,"2nd cycle, RH 40.0 %",0.00702%
same,ΔM Desorption,"2nd cycle, RH 50.0 %",0.00395%
same,ΔM Hysteresis,"2nd cycle, RH 50.0 %",−0.00592%
same,ΔM Sorption,"2nd cycle, RH 50.0 %",0.00987%
same,ΔM Desorption,"2nd cycle, RH 60.0 %",0.00395%
same,ΔM Hysteresis,"2nd cycle, RH 60.0 %",−0.00724%
same,ΔM Sorption,"2nd cycle, RH 60.0 %",0.01119%
same,ΔM Desorption,"2nd cycle, RH 70.0 %",0.00329%
same,ΔM Hysteresis,"2nd cycle, RH 70.0 %",−0.00417%
same,ΔM Sorption,"2nd cycle, RH 70.0 %",0.00746%
same,ΔM Desorption,"2nd cycle, RH 80.0 %",0.00132%
same,ΔM Hysteresis,"2nd cycle, RH 80.0 %",0.00197%
same,ΔM Sorption,"2nd cycle, RH 80.0 %",−0.00066%
same,ΔM Desorption,"2nd cycle, RH 90.0 %",−0.01031%
same,ΔM Sorption,"2nd cycle, RH 90.0 %",−0.01031%
same,ΔM Sorption,"3rd cycle, RH 0.0 %",−0.00461%
same,ΔM Sorption,"3rd cycle, RH 10.0 %",−0.0011%
same,ΔM Sorption,"3rd cycle, RH 20.0 %",0.00066%
same,ΔM Sorption,"3rd cycle, RH 30.0 %",0.00197%
same,ΔM Sorption,"3rd cycle, RH 40.0 %",0.00461%
same,ΔM Sorption,"3rd cycle, RH 50.0 %",0.00768%

# Reference: patent US20110251286A1, “Crystalline salts and/or co-crystals of O-desmethyltramadol” (GRUENENTHAL GmbH, priority 2010, published 2011)
